From DBAASP
In brackets after ≈: the same amount, converted by molar mass. Several values for one entry are separate records, joined by “and”; a condition that tells them apart may be missing. Equal values may be shown once. Blank lines part the entries; values can stand above or below the compound they belong to.

Assays:
Experiment in all cases: ≥ marks a high value that may be exact or a test limit, other limits are often not marked, values filed in µg/mL are converted to µM
[1] = test system: Klebsiella pneumoniae ATCC 43816
[2] = test system: Escherichia coli NCTC 10418
[3] = test system: Enterococcus faecalis NCTC 12697
[4] = test system: Staphylococcus aureus NCTC 12493
[5] = test system: Candida albicans NCYC 1467
[6] = test system: Pseudomonas aeruginosa ATCC 27853
[7] = test system: Staphylococcus aureus NCTC 10788
[8] = test system: Escherichia coli ATCC 25922
[9] = test system: Staphylococcus aureus ATCC 9144
[10] = test system: Candida albicans ATCC 10231
Aureobasidium pullulans = test system: Aureobasidium pullulans
[11] = test system: Corynebacterium glutamicum ATCC 13032
[12] = test system: Staphylococcus aureus ATCC 29213
[13] = test system: Candida albicans CGMCC 2.2086
[14] = test system: Staphylococcus aureus ATCC 25923
[15] = test system: Salmonella enterica subsp. enterica serovar Typhimurium C77-31
[16] = test system: Lactiplantibacillus plantarum 8014
[17] = test system: Staphylococcus epidermidis ATCC 12228
[18] = test system: Salmonella enterica subsp. enterica serovar Typhimurium ATCC 14028
[19] = test system: Candida parapsilosis CGMCC 2.3989
[20] = test system: Lacticaseibacillus rhamnosus 7469
[21] = test system: Candida tropicalis CGMCC 2.1975
[22] = test system: Staphylococcus aureus NCTC 8325
[23] = test system: Pseudomonas aeruginosa PAO1
Escherichia coli MG1655 = test system: Escherichia coli MG1655
[24] = test system: Pseudomonas aeruginosa PA7
[25] = test system: Pseudomonas aeruginosa PA287
[26] = test system: Pseudomonas aeruginosa PA214
Escherichia coli K-12 = test system: Escherichia coli K-12

SMILES: CC(C)[C@H](NC(=O)[C@H](CCCCN)NC(=O)[C@H](C)NC(=O)[C@@H](NC(=O)[C@@H](NC(=O)[C@H](CCCN=C(N)N)NC(=O)[C@H](C)NC(=O)[C@H](Cc1c[nH]c2ccccc12)NC(=O)[C@H](Cc1c[nH]c2ccccc12)NC(=O)CN)[C@@H](C)O)C(C)C)C(=O)N[C@@H](CCCN=C(N)N)C(=O)N[C@@H](CCCCN)C(N)=O [GWWARTVAKVRK]
MIC [8]: 6.3 µM (≈ 9.18 µg/mL)
MIC [9]: ≥ 50 µM
MIC [10]: 25 µM (≈ 36.4 µg/mL)
MIC (Aureobasidium pullulans): ≥ 50 µM
MIC [6]: 12.5 µM (≈ 18.2 µg/mL)
MIC [11]: 1.6 µM (≈ 2.33 µg/mL)

SMILES: CC[C@H](C)[C@H](N)C(=O)N[C@@H](Cc1cnc[nH]1)C(=O)N[C@@H](Cc1cnc[nH]1)C(=O)N[C@H](C(=O)N[C@@H](Cc1cnc[nH]1)C(=O)N[C@@H](Cc1cnc[nH]1)C(=O)N[C@H](C(=O)N[C@H](C(=O)N[C@@H](Cc1cnc[nH]1)C(=O)N[C@@H](Cc1cnc[nH]1)C(=O)N[C@H](C(=O)N[C@@H](Cc1cnc[nH]1)C(=O)N[C@@H](Cc1cnc[nH]1)C(=O)N[C@H](C(N)=O)[C@@H](C)CC)[C@@H](C)CC)[C@@H](C)CC)[C@@H](C)CC)[C@@H](C)CC [IHHIHHIIHHIHHI]
MIC [12]: > 64 µM
MIC [13]: 8 µM (≈ 14.3 µg/mL)
MIC [14]: > 64 µM
MIC [16]: ≥ 64 µM
MIC [17]: > 64 µM
MIC [18]: 32 µM and 64 µM
MIC [19]: 4 µM (≈ 7.17 µg/mL)
MIC [20]: ≥ 64 µM
MIC [21]: 1 µM (≈ 1.79 µg/mL)

SMILES: CC[C@H](C)[C@H](N)C(=O)N[C@@H](CCCCN)C(=O)N[C@H](C(=O)N1CCC[C@H]1C(=O)N1CCC[C@H]1C(=O)N[C@H](C(=O)N[C@H](C(=O)N[C@@H](CCCCN)C(=O)N[C@@H](CC(=O)O)C(=O)N[C@H](C(=O)N[C@@H](CC(C)C)C(=O)N[C@@H](CCCCN)C(=O)N[C@@H](CCCCN)C(=O)N[C@H](C(=O)N[C@@H](C)C(=O)N[C@@H](CCCCN)C(=O)NCC(=O)N[C@H](C(=O)N[C@@H](CC(C)C)C(=O)N[C@@H](CO)C(=O)N[C@H](C(=O)N[C@H](C(=O)N[C@@H](C)C(=O)N[C@@H](CC(=O)O)C(=O)N[C@@H](C)C(=O)N[C@@H](CC(C)C)C(=O)N[C@@H](CO)C(=O)N[C@@H](CCCCN)C(=O)N[C@@H](CO)C(=O)O)C(C)C)[C@@H](C)O)C(C)C)C(C)C)[C@@H](C)O)C(C)C)[C@@H](C)CC)[C@@H](C)CC [IKIPPIVKDTLKKVAKGVLSTVADALSKS]
MIC [22]: ≥ 362 µM
MIC [23]: 5.66 µM (≈ 17.1 µg/mL)
MIC (Escherichia coli MG1655): 1 µM (≈ 3.02 µg/mL)
MIC [24]: 8 µM (≈ 24.2 µg/mL)

SMILES: C[C@H](NC(=O)[C@H](C)NC(=O)[C@H](Cc1ccccc1)NC(=O)[C@H](C)NC(=O)[C@H](CCCCN)NC(=O)[C@H](C)NC(=O)[C@H](Cc1c[nH]c2ccccc12)NC(=O)[C@H](C)NC(=O)[C@H](CCCCN)NC(=O)[C@H](C)NC(=O)[C@H](Cc1ccccc1)NC(=O)[C@H](C)NC(=O)[C@H](C)NC(=O)[C@H](CCCCN)NC(=O)[C@H](CCCCN)NC(=O)[C@H](CCCCN)NC(=O)[C@@H](N)CCCCN)C(N)=O [KKKKAAFAKAWAKAFAA]
MIC [23]: 50 µM (≈ 91.8 µg/mL)
MIC [25]: ≥ 50 µM
MIC [26]: ≥ 50 µM
MIC (Escherichia coli K-12): 12.5 µM (≈ 22.9 µg/mL)

SMILES: C[C@H](NC(=O)[C@H](C)NC(=O)[C@H](Cc1ccccc1)NC(=O)[C@H](C)NC(=O)[C@H](C)NC(=O)[C@H](Cc1c[nH]c2ccccc12)NC(=O)[C@H](C)NC(=O)[C@H](CCCCN)NC(=O)[C@H](C)NC(=O)[C@H](Cc1ccccc1)NC(=O)[C@H](C)NC(=O)[C@H](C)NC(=O)[C@H](CCCCN)NC(=O)[C@H](CCCCN)NC(=O)[C@H](CCCCN)NC(=O)[C@H](CCCCN)NC(=O)[C@@H](N)CCCCN)C(N)=O [KKKKKAAFAKAWAAFAA]
MIC [23]: 25 µM (≈ 45.9 µg/mL)
MIC [25]: ≥ 50 µM
MIC [26]: 25 µM (≈ 45.9 µg/mL)
MIC (Escherichia coli K-12): 6.3 µM (≈ 11.6 µg/mL)

The next lines start with results.

MIC [1]: 16 µM (≈ 41.7 µg/mL)
MIC [2]: 8 µM (≈ 20.8 µg/mL)
MIC [3]: 8 µM (≈ 20.8 µg/mL)
MIC [4]: 16 µM (≈ 41.7 µg/mL)
MIC [5]: 4 µM (≈ 10.4 µg/mL)
MIC [6]: 32 µM (≈ 83.4 µg/mL)
MIC [7]: 4 µM (≈ 10.4 µg/mL)
SMILES: CC[C@H](C)[C@@H]1NC(=O)[C@H](C)NC(=O)[C@@H](NC(=O)[C@H](Cc2ccccc2)NC(=O)[C@@H](NC(=O)[C@H](CCCCN)NC(=O)[C@@H]2CCCN2C(=O)[C@H](CC(C)C)NC(=O)[C@H](Cc2ccccc2)NC(=O)[C@H](CCCCN)NC(=O)[C@H](C)NC(=O)[C@H](C)NC(=O)[C@H](CC(C)C)NC(=O)CNC(=O)[C@H](C)NC(=O)[C@@H](NC(=O)[C@H](CC(C)C)NC(=O)[C@@H]2CCCN2C(=O)[C@H](CC(C)C)NC(=O)[C@@H](N)Cc2ccccc2)[C@@H](C)CC)[C@@H](C)CC)CSSC[C@@H](C(=O)O)NC(=O)[C@H](CCCCN)NC(=O)[C@H](CCCCN)NC(=O)[C@H]([C@@H](C)O)NC1=O [FLPLIAGLAAKFLPKIFCAITKKC]

MIC [12]: > 64 µM
MIC [13]: ≥ 64 µM
MIC [14]: > 64 µM
MIC [15]: ≥ 64 µM
MIC [17]: > 64 µM
MIC [18]: > 64 µM
MIC [19]: ≥ 64 µM
MIC [20]: ≥ 64 µM
MIC [21]: 8 µM (≈ 28.6 µg/mL)
SMILES: CC[C@H](C)[C@H](N)C(=O)N[C@@H](Cc1cnc[nH]1)C(=O)N[C@@H](Cc1cnc[nH]1)C(=O)N[C@H](C(=O)N[C@@H](Cc1cnc[nH]1)C(=O)N[C@@H](Cc1cnc[nH]1)C(=O)N[C@H](C(=O)N[C@H](C(=O)N[C@@H](Cc1cnc[nH]1)C(=O)N[C@@H](Cc1cnc[nH]1)C(=O)N[C@H](C(=O)N[C@@H](Cc1cnc[nH]1)C(=O)N[C@@H](Cc1cnc[nH]1)C(=O)N[C@H](C(=O)N[C@H](C(=O)N[C@@H](Cc1cnc[nH]1)C(=O)N[C@@H](Cc1cnc[nH]1)C(=O)N[C@H](C(=O)N[C@@H](Cc1cnc[nH]1)C(=O)N[C@@H](Cc1cnc[nH]1)C(=O)N[C@H](C(=O)N[C@H](C(=O)N[C@@H](Cc1cnc[nH]1)C(=O)N[C@@H](Cc1cnc[nH]1)C(=O)N[C@H](C(=O)N[C@@H](Cc1cnc[nH]1)C(=O)N[C@@H](Cc1cnc[nH]1)C(=O)N[C@H](C(N)=O)[C@@H](C)CC)[C@@H](C)CC)[C@@H](C)CC)[C@@H](C)CC)[C@@H](C)CC)[C@@H](C)CC)[C@@H](C)CC)[C@@H](C)CC)[C@@H](C)CC)[C@@H](C)CC)[C@@H](C)CC [IHHIHHIIHHIHHIIHHIHHIIHHIHHI]
MIC [16]: 2 µM (≈ 7.14 µg/mL)

MIC [22]: ≥ 128 µM
MIC [23]: 4 µM (≈ 12.4 µg/mL)
MIC (Escherichia coli MG1655): 1 µM (≈ 3.1 µg/mL)
MIC [24]: 4 µM (≈ 12.4 µg/mL)
SMILES: CC[C@H](C)[C@H](NC(=O)[C@H](CCC(=O)O)NC(=O)[C@H](CCCCN)NC(=O)[C@H](C)NC(=O)[C@@H](NC(=O)[C@H](CCCCN)NC(=O)[C@H](CCCCN)NC(=O)[C@H](CC(C)C)NC(=O)[C@@H](NC(=O)[C@H](CC(=O)O)NC(=O)[C@H](CCCN=C(N)N)NC(=O)[C@@H](NC(=O)[C@H](Cc1ccccc1)NC(=O)CNC(=O)[C@@H]1CCCN1C(=O)[C@@H](NC(=O)[C@H](CCCCN)NC(=O)[C@@H](N)CC(C)C)[C@@H](C)CC)C(C)C)[C@@H](C)O)C(C)C)C(=O)N[C@@H](Cc1ccccc1)C(=O)N[C@@H](CO)C(=O)N[C@@H](C)C(=O)N[C@H](C(=O)N[C@H](C(=O)NCC(=O)N[C@@H](C)C(=O)N[C@H](C(=O)N[C@H](C(=O)N[C@@H](CCC(N)=O)C(=O)N[C@@H](CO)C(=O)O)[C@@H](C)O)C(C)C)[C@@H](C)O)C(C)C [LKIPGFVRDTLKKVAKEIFSAVTGAVTQS]
